These results are taken from patent publication US12583839B2, “PD-L1 antagonist compound” (ADLAI NORTYE BIOPHARMA CO., LTD., priority 2019, dated 2026).

This assay has as its target T1, PD-1/PD-L1 (Homo sapiens, UniProt Q9NZQ7).
T1 construct: 60535 (PD-1/NFAT-Reporter-Jurkat); host or cells: CHO cells expressing PD-L1; Jurkat cells expressing PD-1
The assay is described as follows: Detection of biological activity of PD-1/PD-L1 signaling inhibition at the cellular level (NFAT luciferase reporter, PD-1/NFAT-Reporter-Jurkat cells co-cultured with TCR activator/PD-L1-CHO cells). The class given is cell-based. The conditions noted are these: PD-1/NFAT-Reporter-Jurkat + TCR activator/PD-L1-CHO co-culture, 6 hours; Atezolizumab as positive control. The source says:
Detection of Biological Activity of PD-1/PD-L1 Signaling Inhibition at the Cellular Level
This detection method is used for evaluating the biological activity of the compounds described in the present invention at the cellular level.
This detection method uses the luciferase reporter gene method to detect the biological activity of the compound on the inhibition of PD-1/PD-L1 signal at the cellular level. PD-1/NFAT—Reporter—Jurkat cells stably express human PD-1 and express the luciferase reporter gene regulated by NFAT elements; TCR activator/PD-L1-CHO cells stably express human PD-L1 and TCR activator elements. When the two cell lines were co-cultured, the binding of PD-1/PD-L1 inhibited the TCR signaling pathway, thereby inhibiting the expression of the downstream NFAT-controlled luciferase reporter gene. When PD-1/PD-L1 antibody or inhibitor is added, this inhibitory effect is reversed and luciferase is expressed, so that the effect of PD-1/PD-L1 inhibitor on luciferase activity can be detected.
PD-1/NFAT—Reporter—Jurkat cell (Cat: 60535) and TCR activator/PD-L1-CHO cell (Cat: 60536) were purchased from BPS Bioscience. Anti-human PD-L1 antibody (Atezolizumab, Cat: A2004) was purchased from Selleck; luciferase reporter gene expression detection kit (ONE-Glo™ Luciferase Assay System, Cat: E6120) was purchased from Promega; multifunction plate reader (SpectraMax i3x) was purchased from Molecular Devices.
The PD-1/NFAT—Reporter—Jurkat cells and TCR activator/PD-L1-CHO cells were cultured according to the routine cell culture protocol.
TCR activator/PD-L1-CHO cells were harvested and seeded into a 96-well culture plate at 35,000 cells/well in a medium volume of 100 μl and incubated overnight at 37° C. The next day, the medium was discarded, compound was added and incubated for 30 minutes, while a solvent control (dimethyl sulfoxide, DMSO, final concentration of 0.1%) and PD-L1 antibody (Atezolizumab, final concentration of about 10 nM) as positive controls were set. PD-1/NFAT-reporter-Jurkat cells were then added. After culturing for 6 hours, the luciferase activity was detected according to the instructions of the luciferase detection reagent.
Using PD-L1 antibody as a positive control, calculate the inhibition rate of PD-1/PD-L1 binding of the test compound (%)=(chemiluminescence value of compound treated wells/average value of chemiluminescence value of solvent control wells−1)/(average value of chemiluminescence value of PD-L1 antibody well/average value of chemiluminescence value of solvent control well−1)×100%.
According to the above detection method, the compounds of the present invention were evaluated for their biological activity at the cellular level, and the activity results are shown in the following table.
(A reporter such as luciferase makes a cellular process visible.)

T1 sequence (Q9NZQ7 19-290): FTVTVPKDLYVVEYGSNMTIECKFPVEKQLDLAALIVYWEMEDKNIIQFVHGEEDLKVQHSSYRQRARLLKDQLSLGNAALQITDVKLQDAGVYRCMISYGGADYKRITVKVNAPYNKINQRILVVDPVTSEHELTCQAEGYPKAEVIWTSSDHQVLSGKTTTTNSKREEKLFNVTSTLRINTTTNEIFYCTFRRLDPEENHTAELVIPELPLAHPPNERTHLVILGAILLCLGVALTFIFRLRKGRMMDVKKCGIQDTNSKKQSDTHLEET

Take `COc1cc(Cn2ncc3c(-c4cccc(-c5ccc(CNC[C@@H]6CCC(=O)N6)c(OC(F)(F)F)c5)c4Cl)cccc32)c(Cl)cc1CN1CC[C@@H](C(=O)O)C1` [Compound 51]: the EC50 (in general, the concentration that produces a half-maximal response) was 692 nM.
As for `COc1cc(-c2cccc(-c3cccc4c3cnn4Cc3cc(OC)c(CN4CC[C@@H](C(=O)O)C4)cc3Cl)c2Cl)ccc1CNC[C@@H]1CCC(=O)N1` [Compound 52], the figure is 92 nM; as for `COc1cc(-c2cccc(-c3cccc4c3cnn4Cc3cc(OC)c(CN[C@@H](CO)C(=O)O)cc3Cl)c2Cl)ccc1CNC[C@@H]1CCC(=O)N1` [Compound 53], 24 nM.
As for `COc1cc(-c2cccc(-c3cccc4c3cnn4Cc3cc(OC)c(CNC[C@H]4CC[C@H](C(=O)O)CC4)cc3Cl)c2Cl)ccc1CNC[C@@H]1CCC(=O)N1` [Compound 54], the figure is 38 nM; as for `COc1cc(-c2cccc(-c3cccc4c3cnn4Cc3cc(OC)c(CN(C)C[C@H]4CC[C@H](C(=O)O)CC4)cc3Cl)c2Cl)ccc1CNC[C@@H]1CCC(=O)N1` [Compound 55], 66 nM.
The same measure for `COc1cc(-c2cccc(-c3cccc4c3cnn4Cc3cc(OC)c(CN[C@H]4CC[C@H](C(=O)O)CC4)cc3Cl)c2Cl)ccc1CNC[C@@H]1CCC(=O)N1` [Compound 56]: 50 nM.
Regarding `COc1cc(-c2cccc(-c3cccc4c3cnn4Cc3cc(OC)c(CN(C)[C@H]4CC[C@H](C(=O)O)CC4)cc3Cl)c2Cl)ccc1CNC[C@@H]1CCC(=O)N1` [Compound 57], the EC50 was found to be 38 nM.
`COc1cc(-c2cccc(-c3cccc4c3cnn4Cc3cc(OC)c(CNC[C@@H]4CCC(=O)N4)cc3Cl)c2Cl)ccc1CNC[C@@H]1CCC(=O)N1` [Compound 58]: the EC50 amounted to 69 nM.
In the case of `COc1cc(-c2cccc(-c3cccc4c3cnn4Cc3cc(OC)c(CN[C@H]4CC[C@@H](C(=O)O)CC4)cc3Cl)c2Cl)ccc1CNC[C@@H]1CCC(=O)N1` [Compound 59], the 50% effective concentration (EC50) was 37 nM.
As for `COc1cc(-c2cccc(-c3cccc4c3cnn4Cc3cc(OC)c(CN(C)[C@H]4CC[C@@H](C(=O)O)CC4)cc3Cl)c2Cl)ccc1CNC[C@@H]1CCC(=O)N1` [Compound 60], the figure is 33 nM.
The same measure for `COc1cc(Cn2ncc3c(-c4cccc(-c5ccc(CN6CC[C@@H](O)C6)cc5)c4Cl)cccc32)c(Cl)cc1CNC[C@H]1CC[C@H](C(=O)O)CC1` [Compound 63]: 950 nM; for `COc1cc(Cn2ncc3c(-c4cccc(-c5ccc(CN6CC[C@@H](C(=O)O)C6)cc5)c4Cl)cccc32)c(Cl)cc1CN1CC[C@@H](O)C1` [Compound 69]: 805 nM.
As for `COc1cc(Cn2ncc3c(-c4cccc(-c5ccc(CN6CC[C@@H](C(=O)O)C6)c(OC)c5)c4Cl)cccc32)c(Cl)cc1CNC[C@@H]1CCC(=O)N1` [Compound 70], the figure is 222 nM.
As for `COc1cc(Cn2ncc3c(-c4cccc(-c5ccc(CN6CC[C@@H](C(=O)O)C6)c(OC)c5)c4Cl)cccc32)c(Cl)cc1CN1CC[C@@H](O)C1` [Compound 71], the EC50 turned out to be 693 nM.
The same measure for `COc1cc(Cn2ncc3c(-c4cccc(-c5ccc(CNC[C@@H]6CCC(=O)N6)cc5)c4Cl)cccc32)c(C#N)cc1CN[C@@H](CO)C(=O)O` [Compound 75]: 142 nM; for `COc1cc(Cn2ncc3c(-c4cccc(-c5ccc(CNC[C@@H]6CCC(=O)N6)cc5)c4Cl)cccc32)c([N+](=O)[O-])cc1CN[C@@H](CO)C(=O)O` [Compound 76]: 49 nM; for `COc1nc(Cn2ncc3c(-c4cccc(-c5ccc(CNC[C@@H]6CCC(=O)N6)cc5)c4Cl)cccc32)c(Cl)cc1CN[C@@H](CO)C(=O)O` [Compound 80]: 302 nM.
As for `COc1cc(Cn2nc(F)c3c(-c4cccc(-c5ccc(CNC[C@@H]6CCC(=O)N6)cc5)c4Cl)cccc32)c(Cl)cc1CN[C@@H](CO)C(=O)O` [Compound 83], the figure is 92 nM; as for `COc1cc(Cn2ncc3c(-c4cccc(-c5ccc(CNC[C@@H]6CCC(=O)N6)cc5)c4Cl)cccc32)c(Cl)cc1CNCc1nnn[nH]1` [Compound 85], 469 nM.
For `O=C(O)COc1cc(Cn2ncc3c(-c4cccc(-c5ccc(CNC[C@@H]6CCC(=O)N6)cc5)c4Cl)cccc32)c(Cl)cc1CNCCO` [Compound 86], the half-maximal effective concentration (EC50) is 395 nM.
As for `COc1cc(-c2cccc(-c3cccc4c3cnn4Cc3cc(OC)c(CN4CC[C@@H](C(=O)O)C4)cc3Cl)c2Cl)ccc1CN1CC[C@@H](O)C1` [Compound 87], the figure is 692 nM.
As for `COc1cc(-c2cccc(-c3cccc4c3cnn4Cc3cc(OC)c(CN4CC[C@@H](C(=O)O)C4)cc3Cl)c2Cl)ccc1CNCCO` [Compound 88], the 50% effective concentration (EC50) is 80 nM.
The same measure for `COc1cc(Cn2ncc3c(-c4cccc(-c5ccc(CNC[C@@H]6CCC(=O)N6)cc5)c4Cl)cccc32)c(N)cc1CN[C@@H](CO)C(=O)O` [Compound 89]: 1110 nM; for `COc1cc(-c2cccc(-c3cccc4c3cnn4Cc3cc(OC)c(CN4CC[C@@H](C(=O)O)C4)cc3Cl)c2C)ccc1CNC[C@@H]1CCC(=O)N1` [Compound 90]: 150 nM.
Regarding `COc1cc(Cn2ncc3c(-c4cccc(-c5ccc(CNC[C@@H]6CCC(=O)N6)c(OC)n5)c4Cl)cccc32)c(Cl)cc1CN(C)CC1CCC(C(=O)O)CC1` (stereo partly shown) [Compound 91], the EC50 is 92 nM.
Regarding `COc1cc(-c2cccc(-c3cccc4c3cnn4Cc3cc(OC)c(CN(C)C4CCC(C(=O)O)CC4)cc3[N+](=O)[O-])c2Cl)ccc1CNC[C@@H]1CCC(=O)N1` (stereo partly shown) [Compound 92], the concentration for a half-maximal effect (EC50) was 15 nM.
Take `COc1cc(-c2cccc(-c3cccc4c3cnn4Cc3cc(OC)c(CN(C)[C@H]4C[C@H](C(=O)O)C4)cc3Cl)c2Cl)ccc1CNC[C@@H]1CCC(=O)N1` [Compound 93]: the EC50 was 21 nM.
The same measure for `COc1cc(-c2cccc(-c3cccc4c3cnn4Cc3cc(OC)c(CN4CCC(CC(=O)O)CC4)cc3Cl)c2Cl)ccc1CNC[C@@H]1CCC(=O)N1` [Compound 94]: 142 nM; for `COc1cc(-c2cccc(-c3cccc4c3cnn4Cc3cc(OC)c(CN(C)[C@H]4CC[C@H](CC(=O)O)CC4)cc3Cl)c2Cl)ccc1CNC[C@@H]1CCC(=O)N1` [Compound 95]: 15 nM.
`COc1cc(-c2cccc(-c3cccc4c3cnn4Cc3cc(OC)c(CN(C)CC4CCC(C(=O)O)CC4)cc3[N+](=O)[O-])c2Cl)ccc1CNC[C@@H]1CCC(=O)N1` (stereo partly shown) [Compound 96]: the EC50 came out at 45 nM.
The same measure for `CCOc1cc(-c2cccc(-c3cccc4c3cnn4Cc3cc(OC)c(CN(C)CC4CCC(C(=O)O)CC4)cc3Cl)c2Cl)ccc1CNC[C@@H]1CCC(=O)N1` (stereo partly shown) [Compound 97]: 273 nM.
With `COc1cc(Cn2ncc3c(-c4cccc(-c5ccc(CNC[C@@H]6CCC(=O)N6)c(OC(C)C)c5)c4Cl)cccc32)c(Cl)cc1CN(C)CC1CCC(C(=O)O)CC1` (stereo partly shown) [Compound 98], the EC50 amounted to 520 nM.
The same measure for `COc1cc(-c2cccc(-c3cccc4c3cnn4Cc3cc(OC)c(CN4CC[C@H](CC(=O)O)C4)cc3Cl)c2Cl)ccc1CNC[C@@H]1CCC(=O)N1` [Compound 99]: 62 nM.
Consider `COc1cc(Cn2ncc3c(-c4cccc(-c5ccc(CN(C)C[C@@H]6CCC(=O)N6)c(OC)c5)c4Cl)cccc32)c(Cl)cc1CN(C)CC1CCC(C(=O)O)CC1` (stereo partly shown) [Compound 100], for which the concentration giving a half-maximal response (EC50) stood at 745 nM.
For the molecule `COc1cc(Cn2ncc3c(-c4cccc(-c5cc(F)c(CNC[C@@H]6CCC(=O)N6)c(OC)c5)c4Cl)cccc32)c(Cl)cc1CN(C)CC1CCC(C(=O)O)CC1` (stereo partly shown) [Compound 101], the 50% effective concentration (EC50) is 87 nM.
As for `COc1cc(Cn2ncc3c(-c4cccc(-c5cc(OC)c(CNC[C@@H]6CCC(=O)N6)c(OC)c5)c4Cl)cccc32)c(Cl)cc1CN(C)CC1CCC(C(=O)O)CC1` (stereo partly shown) [Compound 102], the figure is 735 nM.
As for `COc1cc(-c2cccc(-c3cccc4c3cnn4Cc3cc(OC)c(CN(C)C4CCC(C(=O)O)CC4)cc3S(C)(=O)=O)c2Cl)ccc1CNC[C@@H]1CCC(=O)N1` (stereo partly shown) [Compound 103], the EC50 was 208 nM.
For `COc1cc(-c2cccc(-c3cccc4c3cnn4Cc3cc(OC)c(CN(C)[C@H]4C[C@@H](C(=O)O)C4)cc3Cl)c2Cl)ccc1CNC[C@@H]1CCC(=O)N1` [Compound 104], the EC50 is 46 nM.
As for `COc1cc(-c2cccc(-c3cccc4c3cnn4Cc3cc(OC)c(CN(C)C45CCC(C(=O)O)(CC4)CC5)cc3Cl)c2Cl)ccc1CNC[C@@H]1CCC(=O)N1` [Compound 105], the figure is 20 nM; as for `COc1cc(-c2cccc(-c3cccc4c3cnn4Cc3cc(OC)c(CN(C)C4CC5(CC(C(=O)O)C5)C4)cc3Cl)c2Cl)ccc1CNC[C@@H]1CCC(=O)N1` (stereo partly shown) [Compound 106], 43 nM.
